Laboratory results taken from patent US8129380B2, “Phthalazinone derivatives” (AstraZeneca AB, priority 2008, dated 2012).

The compounds below were run on HeLa cells (assay: Potentiation Factor (PF50): MMS growth inhibition, SRB assay). Conditions: MMS 0-10 μg/ml, PARP inhibitor at 30 nM, ratio IC50 control / IC50 + inhibitor.
Type: cell-based
Description: The Potentiation Factor (PF50) for compounds is calculated as a ratio of the IC50 of control cell growth divided by the IC50 of cell growth+PARP inhibitor. Growth inhibition curves for both control and compound treated cells are in the presence of the alkylating agent methyl methanesulfonate (MMS). The test compounds were used at a fixed concentration of 0.2 micromolar. The concentrations of MMS were over a range from 0 to 10 μg/ml.
2,000 HeLa cells were seeded into each well of a flat-bottomed 96-well microtiter plate in a volume of 100 μl and incubated for 6 hours at 37° C. Cells were either replaced with media alone or with media containing PARP inhibitor at a final concentration of 30 nM or 200 nM. […] Cells treated with PARP inhibitor alone were used to assess the growth inhibition by the PARP inhibitor.
Cells were left for a further 16 hours before replacing the media and allowing the cells to grow for a further 72 hours at 37° C. The media was then removed and the cells fixed with 100 μl of ice cold 10% (w/v) trichloroacetic acid. The plates were incubated at 4° C. for 20 minutes and then washed four times with water. Each well of cells was then stained with 100 μl of 0.4% (w/v) SRB in 1% acetic acid for 20 minutes before washing four times with 1% acetic acid. Plates were then dried for 2 hours at room temperature. The dye from the stained cells was solubilized by the addition of 100 μl of 10 mM Tris Base into each well.

Point of comparison: `CC(C)OC1CCN(C(=O)c2cc(Cc3n[nH]c(=O)c4ccccc34)ccn2)CC1` [Compound 25, 4-[[2-(4-propan-2-yloxypiperidine-1-carbonyl)pyridin-4-yl]methyl]-2H-phthalazin-1-one], “PF50 (30 nM)” value 2.1. Against it:
- O=C(c1cc(Cc2n[nH]c(=O)c3ccccc23)ccc1F)N1CCC(Oc2ccc(F)cc2)CC1 [Compound 2c] — lower, 1.9
- O=C(c1cc(Cc2n[nH]c(=O)c3ccccc23)ccc1F)N1CCC(OCC2CC2)CC1 [Compound 2g] — higher, 4.3
- CC(C)COC1CCN(C(=O)c2cc(Cc3n[nH]c(=O)c4ccccc34)ccc2F)CC1 [Compound 2h] — higher, 2.9
- O=C(c1cc(Cc2n[nH]c(=O)c3ccccc23)ccc1F)N1CCC(Oc2ccccn2)CC1 [Compound 2i] — higher, 16.7
- O=C(c1cc(Cc2n[nH]c(=O)c3ccccc23)ccc1F)N1CCC(Oc2ccncc2)CC1 [Compound 2j] — higher, 3.0
- O=C(c1cccc(Cc2n[nH]c(=O)c3c(F)ccc(F)c23)c1)N1CCC(OCC2CC2)CC1 [Compound 4a] — lower, 1.2
- O=C(c1cccc(Cc2n[nH]c(=O)c3c(F)ccc(F)c23)c1)N1CCC(Oc2ccccn2)CC1 [Compound 4b] — higher, 2.2
- CC(C)COC1CCN(C(=O)c2cccc(Cc3n[nH]c(=O)c4c(F)ccc(F)c34)c2)CC1 [Compound 4c] — lower, 1.2
- O=C(c1cc(Cc2n[nH]c(=O)c3ccccc23)ccn1)N1CCC(Oc2ccc(Cl)cc2)CC1 [Compound 6a] — lower, 1.7
- O=C(c1cc(Cc2n[nH]c(=O)c3ccccc23)ccn1)N1CCC(Oc2ccc(F)cc2)CC1 [Compound 6b] — lower, 1.5
- COC1CCN(C(=O)c2cc(Cc3n[nH]c(=O)c4ccccc34)ccn2)CC1 [Compound 6c] — lower, 1.2
- O=C(c1cc(Cc2n[nH]c(=O)c3ccccc23)ccn1)N1CCC(Oc2ccccc2)CC1 [Compound 6d] — lower, 1.4
- O=C(c1cc(Cc2n[nH]c(=O)c3ccccc23)ccn1)N1CCC(Oc2ccncc2)CC1 [Compound 6e] — lower, 1.5
- O=C(c1cc(Cc2n[nH]c(=O)c3ccccc23)ccn1)N1CCC(Oc2ccccn2)CC1 [Compound 6f] — lower, 1.8
- COCCOC1CCN(C(=O)c2cc(Cc3n[nH]c(=O)c4ccccc34)ccc2F)CC1 [Compound 7, 4-(4-fluoro-3-(4-(2-methoxyethoxy)piperidine-1-carbonyl)benzyl)phthalazin-1(2H)-one] — higher, 4.0
- COc1cccc(OC2CCN(C(=O)c3cc(Cc4n[nH]c(=O)c5ccccc45)ccc3F)CC2)c1 [Compound 8a, 4-[[4-fluoro-3-[4-(3-methoxyphenoxy)piperidine-1-carbonyl]phenyl]methyl]-2H-phthalazin-1-one] — lower, 1.6
- COc1ccc(OC2CCN(C(=O)c3cc(Cc4n[nH]c(=O)c5ccccc45)ccc3F)CC2)cc1 [Compound 8b, 4-[[4-fluoro-3-[4-(4-methoxyphenoxy)piperidine-1-carbonyl]phenyl]methyl]-2H-phthalazin-1-one] — higher, 23.6
- CCCOC1CCN(C(=O)c2cc(Cc3n[nH]c(=O)c4ccccc34)ccc2F)CC1 [Compound 8c, 4-[[4-fluoro-3-(4-propoxypiperidine-1-carbonyl)phenyl]methyl]-2H-phthalazin-1-one] — higher, 12.2
- COc1ccccc1OC1CCN(C(=O)c2cc(Cc3n[nH]c(=O)c4ccccc34)ccc2F)CC1 [Compound 8d, 4-[[4-fluoro-3-[4-(2-methoxyphenoxy)piperidine-1-carbonyl]phenyl]methyl]-2H-phthalazin-1-one] — lower, 1.2
- O=C(c1cc(Cc2n[nH]c(=O)c3ccccc23)ccc1F)N1CCC(OCc2ccccc2)CC1 [Compound 8e, 4-[[4-fluoro-3-(4-phenylmethoxypiperidine-1-carbonyl)phenyl]methyl]-2H-phthalazin-1-one] — lower, 1.4
- N#CCc1ccc(OC2CCN(C(=O)c3cc(Cc4n[nH]c(=O)c5ccccc45)ccc3F)CC2)cc1 [Compound 8f, 2-[4-[1-[2-fluoro-5-[(4-oxo-3H-phthalazin-1-yl)methyl]benzoyl]piperidin-4-yl]oxyphenyl]acetonitrile] — higher, 4.1
- O=C(c1cc(Cc2n[nH]c(=O)c3ccccc23)ccc1F)N1CCC2(CC1)OCc1ccccc12 [Compound 9, 4-(4-fluoro-3-(3H-spiro[isobenzofuran-1,4′-piperidine]-1′-ylcarbonyl)benzyl)phthalazin-1(2H)-one] — lower, 1.3
- CC(C)OC1CCN(C(=O)c2cc(Cc3n[nH]c(=O)c4ccccc34)ccc2F)CC1 [Compound 11, 4-(4-fluoro-3-(4-isopropoxypiperidine-1-carbonyl)benzyl)phthalazin-1(2H)-one] — higher, 33.6
- CC(C)OC1CCN(C(=O)c2cccc(Cc3n[nH]c(=O)c4ccccc34)c2)CC1 [Compound 12] — the same, 2.1
- O=C(c1cc(Cc2n[nH]c(=O)c3ccccc23)ccc1F)N1CCC(OC2CCC2)CC1 [Compound 15, 4-(3-(4-cyclobutoxypiperidine-1-carbonyl)-4-fluorobenzyl)phthalazin-1(2H)-one] — higher, 4.4
- C=CCOC1CCN(C(=O)c2cc(Cc3n[nH]c(=O)c4ccccc34)ccc2F)CC1 [Compound 16] — higher, 3.4
- O=C(c1cc(Cc2n[nH]c(=O)c3ccccc23)ccc1F)N1CCC(OC(F)F)CC1 [Compound 19, 4-(3-(4-(difluoromethoxy)piperidine-1-carbonyl)-4-fluorobenzyl)phthalazin-1(2H)-one] — higher, 2.5
- O=C(c1cc(Cc2n[nH]c(=O)c3ccccc23)ccc1F)N1CCC(OCC2CCCO2)CC1 (stereo not drawn) [Compound 20, 4-[[4-fluoro-3-[4-(oxolan-2-ylmethoxy)piperidine-1-carbonyl]phenyl]methyl]-2H-phthalazin-1-one] — lower, 2.0
- COC1(C)CCN(C(=O)c2cc(Cc3n[nH]c(=O)c4ccccc34)ccc2F)CC1 [Compound 24, 4-[[4-fluoro-3-(4-methoxy-4-methylpiperidine-1-carbonyl)phenyl]methyl]-2H-phthalazin-1-one] — lower, 1.5
- O=C(c1cc(Cc2n[nH]c(=O)c3ccccc23)ccc1F)N1CCC(Oc2ccncn2)CC1 [Compound 26a, 4-(4-fluoro-3-(4-(pyrimidin-4-yloxy)piperidine-1-carbonyl)benzyl)phthalazin-1(2H)-one] — higher, 3.7
- Cc1ccc(OC2CCN(C(=O)c3cc(Cc4n[nH]c(=O)c5ccccc45)ccc3F)CC2)nn1 [Compound 26b] — lower, 1.5
- N#Cc1ccc(OC2CCN(C(=O)c3cc(Cc4n[nH]c(=O)c5ccccc45)ccc3F)CC2)nc1 [Compound 26c] — higher, 32.4
- O=C(c1cc(Cc2n[nH]c(=O)c3ccccc23)ccc1F)N1CCC(Oc2cnccn2)CC1 [Compound 26d] — higher, 4.0
- O=C(c1cc(Cc2n[nH]c(=O)c3ccccc23)ccc1F)N1CCC(Oc2ncccn2)CC1 [Compound 26e] — higher, 2.7
- N#Cc1ccnc(OC2CCN(C(=O)c3cc(Cc4n[nH]c(=O)c5ccccc45)ccc3F)CC2)c1 [Compound 26f] — higher, 4.4
- NC(=O)c1ccnc(OC2CCN(C(=O)c3cc(Cc4n[nH]c(=O)c5ccccc45)ccc3F)CC2)c1 [Compound 26g] — lower, 1.6
- Cc1nccnc1OC1CCN(C(=O)c2cc(Cc3n[nH]c(=O)c4ccccc34)ccc2F)CC1 [Compound 26h] — higher, 12.7
- Cc1cnc(OC2CCN(C(=O)c3cc(Cc4n[nH]c(=O)c5ccccc45)ccc3F)CC2)c(C)n1 [Compound 26i] — higher, 8.0
- Cc1cnc(C)c(OC2CCN(C(=O)c3cc(Cc4n[nH]c(=O)c5ccccc45)ccc3F)CC2)n1 [Compound 26j] — lower, 1.2
- COc1ccnc(OC2CCN(C(=O)c3cc(Cc4n[nH]c(=O)c5ccccc45)ccc3F)CC2)c1 [Compound 26k] — higher, 26.8
- N#Cc1nccnc1OC1CCN(C(=O)c2cc(Cc3n[nH]c(=O)c4ccccc34)ccc2F)CC1 [Compound 26l] — lower, 1.2
- O=C(c1cc(Cc2n[nH]c(=O)c3ccccc23)ccc1F)N1CCC(Oc2ccc(Cl)nc2)CC1 [Compound 26m] — higher, 2.4

Same assay, conditions: MMS 0-10 μg/ml, PARP inhibitor at 200 nM, ratio IC50 control / IC50 + inhibitor

Point of comparison: `O=C(c1cc(Cc2n[nH]c(=O)c3ccccc23)ccc1F)N1CCC(O)CC1` [Compound 2a, 4-(4-fluoro-3-(4-hydroxypiperidine-1-carbonyl)benzyl)phthalazin-1(2H)-one], “PF50 (200 nM)” value 3. Against it:
- O=C(c1cc(Cc2n[nH]c(=O)c3ccccc23)ccc1F)N1CCC(Oc2ccc(F)cc2)CC1 [Compound 2c] — higher, 7
- O=C(c1cc(Cc2n[nH]c(=O)c3ccccc23)ccn1)N1CCC(Oc2ccc(Cl)cc2)CC1 [Compound 6a] — higher, 4.2
- O=C(c1cc(Cc2n[nH]c(=O)c3ccccc23)ccn1)N1CCC(Oc2ccc(F)cc2)CC1 [Compound 6b] — higher, 3.5
- COC1CCN(C(=O)c2cc(Cc3n[nH]c(=O)c4ccccc34)ccn2)CC1 [Compound 6c] — lower, 1.5
- O=C(c1cc(Cc2n[nH]c(=O)c3ccccc23)ccn1)N1CCC(Oc2ccccc2)CC1 [Compound 6d] — higher, 3.5
- O=C(c1cc(Cc2n[nH]c(=O)c3ccccc23)ccn1)N1CCC(Oc2ccncc2)CC1 [Compound 6e] — lower, 1.9
- O=C(c1cc(Cc2n[nH]c(=O)c3ccccc23)ccn1)N1CCC(Oc2ccccn2)CC1 [Compound 6f] — higher, 5.0
